Test results from patent US12509431B2, “1,4-dihydroquinazolinone compounds and uses thereof” (Edgewise Therapeutics, Inc., priority 2022, dated 2025).

Experiments:
Type in all cases: biochemical
[1] = system: Rabbit Skeletal myofibrils (rabbit psoas muscle); assay: Myofibril ATPase assay (PK/LDH NADH-coupled), skeletal myofibrils
How it was run: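 ATPase rate taken as linear-regression slope of A340 (NADH depletion through PK/LDH coupling) over a 75 min kinetic read, with psoas-derived rabbit skeletal myofibrils at pH 7.0. Four-parameter fits of vehicle-normalized activity give EC25 and, where reached, EC50.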

[2] = molecular target: T1, Porcine Ventricle myofibrils (left ventricle of Yucatan minipigs) (Sus scrofa, UniProt P79293); assay: Myofibril ATPase assay (PK/LDH NADH-coupled), ventricle myofibrils
T1 construct: Myofibrils from porcine cardiac muscle was isolated from the left ventricle of Yucatan minipigs; tissue Exemplar Genetics; host or cells: left ventricle of Yucatan minipigs
How it was run: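 NADH depletion (A340) coupled through pyruvate kinase/lactate dehydrogenase reports ATPase rate of porcine left-ventricle myofibrils over 75 min kinetic reads. Regression slopes, vehicle-normalized, fitted by 4-parameter logistic give EC25 and, where available, EC50.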

Porcine Atria myofibrils = assay: Myofibril ATPase assay (PK/LDH NADH-coupled), atria myofibrils
How it was run: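 Values are EC25% (and, for inhibitors, EC50%) from 4-parameter logistic fits of activity normalized to vehicle wells. Rates came from linear regression of 340 nm kinetic reads (every 1.5-2 min, 75 min) of NADH-coupled ATP turnover by porcine atria myofibrils.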

T1 sequence (P79293 whole entry): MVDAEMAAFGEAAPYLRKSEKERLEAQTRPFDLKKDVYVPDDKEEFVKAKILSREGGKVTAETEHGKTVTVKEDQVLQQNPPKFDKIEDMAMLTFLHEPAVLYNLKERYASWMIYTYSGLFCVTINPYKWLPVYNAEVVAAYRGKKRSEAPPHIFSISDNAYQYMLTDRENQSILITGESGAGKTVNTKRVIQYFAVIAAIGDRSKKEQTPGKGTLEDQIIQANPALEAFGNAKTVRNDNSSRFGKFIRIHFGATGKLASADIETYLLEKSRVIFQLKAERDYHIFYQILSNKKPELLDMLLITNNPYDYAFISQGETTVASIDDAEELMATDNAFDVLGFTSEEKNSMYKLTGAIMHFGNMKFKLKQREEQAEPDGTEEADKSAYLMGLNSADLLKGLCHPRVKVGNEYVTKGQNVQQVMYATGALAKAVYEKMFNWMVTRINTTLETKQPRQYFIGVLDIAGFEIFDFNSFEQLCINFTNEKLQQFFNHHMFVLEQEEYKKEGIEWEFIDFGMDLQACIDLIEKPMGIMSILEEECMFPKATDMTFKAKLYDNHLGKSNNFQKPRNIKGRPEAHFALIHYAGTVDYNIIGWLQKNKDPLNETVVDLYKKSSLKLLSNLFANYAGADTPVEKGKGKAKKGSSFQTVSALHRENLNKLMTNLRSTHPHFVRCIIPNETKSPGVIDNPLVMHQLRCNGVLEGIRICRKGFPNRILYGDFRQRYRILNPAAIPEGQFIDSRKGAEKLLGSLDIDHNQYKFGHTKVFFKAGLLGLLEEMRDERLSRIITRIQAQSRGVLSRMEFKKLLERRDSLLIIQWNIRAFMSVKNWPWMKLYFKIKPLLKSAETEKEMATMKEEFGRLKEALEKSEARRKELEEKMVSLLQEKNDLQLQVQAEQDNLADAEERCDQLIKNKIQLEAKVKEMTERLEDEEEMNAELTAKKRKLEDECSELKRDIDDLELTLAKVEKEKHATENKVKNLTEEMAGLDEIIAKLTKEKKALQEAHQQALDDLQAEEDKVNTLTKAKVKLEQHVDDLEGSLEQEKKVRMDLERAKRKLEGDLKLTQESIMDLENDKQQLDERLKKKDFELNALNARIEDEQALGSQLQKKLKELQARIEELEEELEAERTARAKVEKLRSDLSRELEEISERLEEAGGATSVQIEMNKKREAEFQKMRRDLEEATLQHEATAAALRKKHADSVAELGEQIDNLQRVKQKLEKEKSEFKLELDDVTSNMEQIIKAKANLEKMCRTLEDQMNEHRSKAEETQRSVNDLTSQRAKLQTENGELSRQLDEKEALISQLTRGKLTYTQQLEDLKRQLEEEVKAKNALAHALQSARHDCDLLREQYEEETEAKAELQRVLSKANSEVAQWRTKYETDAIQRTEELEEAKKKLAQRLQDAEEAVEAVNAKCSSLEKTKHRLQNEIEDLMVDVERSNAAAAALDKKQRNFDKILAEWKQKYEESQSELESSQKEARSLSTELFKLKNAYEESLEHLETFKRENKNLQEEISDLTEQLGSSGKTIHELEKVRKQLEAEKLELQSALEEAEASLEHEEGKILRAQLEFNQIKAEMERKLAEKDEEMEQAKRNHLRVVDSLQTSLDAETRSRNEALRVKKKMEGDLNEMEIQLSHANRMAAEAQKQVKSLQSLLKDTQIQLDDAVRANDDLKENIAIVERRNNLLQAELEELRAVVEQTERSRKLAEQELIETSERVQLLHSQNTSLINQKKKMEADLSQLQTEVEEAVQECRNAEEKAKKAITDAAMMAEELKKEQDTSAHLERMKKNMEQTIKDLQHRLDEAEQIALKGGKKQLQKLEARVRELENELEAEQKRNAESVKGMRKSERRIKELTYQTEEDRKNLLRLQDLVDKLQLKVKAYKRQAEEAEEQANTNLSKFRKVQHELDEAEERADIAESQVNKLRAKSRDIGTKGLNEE

Structure (SMILES)	Rabbit Psoas IC25 ([1]; Table 8) [µM]	Porcine Ventricle IC25 ([2]; Table 8) [µM]	Porcine Atria IC25 (Porcine Atria myofibrils; Table 8) [µM]	Rabbit Psoas IC25 ([1]; Table 7) [µM]	Porcine Ventricle IC25 ([2]; Table 7) [µM]	Porcine Atria IC25 (Porcine Atria myofibrils; Table 7) [µM]
Cc1cnc([C@@H](C)NC(=O)CN2Cc3cc(F)ccc3NC2=O)c(F)c1 [Compound B194]	6.088	78.56	3.71	–	–	–
C[C@@H](NC(=O)CN1Cc2c(ccc(F)c2F)NC1=O)c1ncc(C#N)cn1 [Compound B105]	4.205	6.381	0.11	–	–	–
CC(C)C[C@@H](C(=O)N[C@H](C)c1ccc(F)cc1F)N1Cc2cc(F)ccc2NC1=O [Compound B66]	100	100	100.00	–	–	–
C[C@H](NC(=O)CN1Cc2c(ccc(F)c2F)NC1=O)c1ncnc(C#N)c1F [Compound B342]	2.45	4.85	0.93	–	–	–
Cc1ncnc([C@H](C)NC(=O)CN2Cc3c(ccc(F)c3F)NC2=O)c1F [Compound B344]	2.78	8.84	1.29	–	–	–
C[C@@H](NC(=O)CN1Cc2c(F)cc(C#N)cc2NC1=O)c1ccc(C#N)cc1F [Compound B10]	29.08	8.204	100.00	–	–	–
C[C@H](NC(=O)[C@H](C)N1Cc2cc(F)ccc2NC1=O)c1ccc(F)cc1F [Compound B242]	0.3555	100	58.71	–	–	–
C[C@@H](NC(=O)CN1Cc2c(ccc(F)c2F)NC1=O)c1ncc(Br)cc1F [Compound B292]	0.42	0.54	0.16	–	–	–
C[C@H](NC(=O)CN1Cc2cc(F)cc(Cl)c2NC1=O)c1ccc(C#N)cc1F [Compound B41]	0.0857	1.384	1.74	–	–	–
C[C@@H](NC(=O)CN1Cc2cc(F)ccc2NC1=O)c1ccc(F)cc1F [Compound B177]	68.51	100	100.00	–	–	–
Cc1cc(C#N)nnc1C(C)NC(=O)CN1Cc2c(ccc(F)c2F)NC1=O (single isomer, unassigned) [Compound B23]	0.0124	0.0347	0.04	–	–	–
C[C@H](NC(=O)[C@H](CC1CC1)N1Cc2c(ccc(F)c2F)NC1=O)c1ccc(F)cc1F [Compound B48]	12.65	62.1	100.00	–	–	–
N#Cc1cnc2c(c1)CC[C@@H]2NC(=O)CN1Cc2c(ccc(F)c2F)NC1=O [Compound B90]	100	100	10.98	–	–	–
C[C@@H](NC(=O)CN1C(=O)Nc2ccc(C#N)nc2C12CC2)c1ccc(F)cc1F [Compound N12]	–	–	–	100	100	7.63
COc1cccnc1[C@H](C)NC(=O)CN1Cc2cc(F)ccc2NC1=O [Compound B187]	100	100	68.80	–	–	–
Cc1nc(C#N)cnc1[C@H](CO)NC(=O)CN1Cc2c(ccc(F)c2F)NC1=O [Compound B355]	0.07	0.14	0.05	–	–	–
C[C@H](NC(=O)CN1Cc2cc(Cl)cnc2NC1=O)c1ccc(F)cc1F [Compound N82]	–	–	–	100	100	100.00
O=C(CN1Cc2c(ccc(F)c2F)NC1=O)N[C@H]1COc2cc(F)cnc21 [Compound B7]	29.14	2.786	0.45	–	–	–
C[C@@H](NC(=O)CN1Cc2c(C#N)cccc2NC1=O)c1ccc(C#N)cn1 [Compound B115]	100	100	100.00	–	–	–

Structure (SMILES)	Rabbit Psoas IC25 ([1]; Table 8) [µM]	Porcine Ventricle IC25 ([2]; Table 8) [µM]	Porcine Atria IC25 (Porcine Atria myofibrils; Table 8) [µM]	Rabbit Psoas IC25 ([1]; Table 7) [µM]	Porcine Ventricle IC25 ([2]; Table 7) [µM]	Porcine Atria IC25 (Porcine Atria myofibrils; Table 7) [µM]
C[C@@H](NC(=O)CN1Cc2cc(F)ccc2NC1=O)c1ncccc1F [Compound B173]	100	100	100.00	–	–	–
N#Cc1cnc2c(c1)OC[C@H]2NC(=O)CN1C(=O)Nc2ccc(F)c(F)c2C12CC2 [Compound B321]	0.23	0.97	0.17	–	–	–
C[C@H](NC(=O)CN1Cc2c(ccc(F)c2F)NC1=O)c1c(F)cncc1F [Compound B104]	100	100	2.79	–	–	–
C[C@H](C(=O)N[C@H](C)c1ccc(F)cc1F)N1Cc2cc(F)ccc2NC1=O [Compound B240]	0.8825	100	25.37	–	–	–
Cc1cc(C#N)cnc1[C@H](C)NC(=O)CN1Cc2c(ccc(F)c2F)NC1=O [Compound B9]	0.0224	0.0379	0.04	–	–	–
N#Cc1cnc2c(c1)OC[C@@H]2NC(=O)CN1C(=O)Nc2ccc(F)c(F)c2C12CC2 [Compound B322]	0.03	0.06	0.07	–	–	–
C[C@H](NC(=O)CN1Cc2cc3c(cc2NC1=O)OCCO3)c1ncc(C#N)cc1F [Compound B277]	100.00	73.20	77.49	–	–	–
C[C@H](NC(=O)CN1C(=O)Nc2ccc(C#N)nc2C12CC2)c1ncc(C#N)cc1F [Compound N4]	–	–	–	0.1067	0.474	0.07
CC(C)c1cc(F)cnc1[C@@H](C)NC(=O)CN1Cc2c(ccc(F)c2F)NC1=O [Compound B20]	100	100	100.00	–	–	–
Cc1nc(C#N)cnc1[C@@H](C)NC(=O)CN1C(=O)Nc2ccc(F)cc2C12CC2 [Compound B330]	0.05	0.19	0.08	–	–	–
C[C@@H](NC(=O)CN1Cc2cc(F)cc(F)c2NC1=O)c1ccc(C#N)cc1F [Compound B28]	100	100	6.24	–	–	–
C[C@@H](NC(=O)CN1Cc2c(ccc(F)c2F)NC1=O)c1cc2c(cn1)OCCN2C [Compound B73]	23.3	2.134	1.22	–	–	–
Cc1nc(C#N)cnc1[C@@H](CO)NC(=O)CN1Cc2c(ccc(F)c2F)NC1=O [Compound B354]	68.36	3.83	0.21	–	–	–
CNC(=O)N1CC2(C1)c1cc(F)ccc1NC(=O)N2CC(=O)N[C@H](C)c1ncc(C#N)cc1F [Compound B253]	86.41	100.00	100.00	–	–	–
C[C@H](NC(=O)CN1Cc2nc(F)ccc2NC1=O)c1ccc(F)cc1F [Compound N123]	–	–	–	0.03514	0.8592	0.07
C[C@H](NC(=O)CN1Cc2c(F)cccc2NC1=O)c1ccc(C#N)cc1F [Compound B114]	0.0208	0.1673	0.12	–	–	–
C[C@@H](NC(=O)CN1Cc2c(ccc(F)c2F)NC1=O)c1ccc2cnccc2n1 [Compound B274]	100.00	95.97	1.10	–	–	–
C[C@H](NC(=O)CN1Cc2c(F)cncc2NC1=O)c1ncc(F)cc1F [Compound N64]	–	–	–	16.71	100	25.37
